Assay [1] concerns hamsters fed with high cholesterol diet. Kind of assay: Total plasma cholesterol and non-HDL cholesterol reducing action in hamster fed high cholesterol diet. In kind it is in vivo. Conditions: Mesocricetus auratus, 192 h, hamsters on high cholesterol diet, 10 mg/kg oral once a day for one week, plasma on 8th day. The method, then:
Test for Measuring Total Plasma Cholesterol Reducing Action and Non-HDL Cholesterol (VLDL Cholesterol+LDL Cholesterol) Reducing Action in Hamster
A test compound (10 mg/kg) was administered once a day for one week to hamsters fed with high cholesterol diet (CE-2 (Clea Japan)+1% cholesterol+10% coconut oil) for five days. The plasma cholesterol level and the plasma HDL cholesterol level were measured immediately before the start of the administration of the test sample or vehicle on the 1st day, and the hamsters were divided into groups so that the groups gave no significant value of initial levels of the both measurements. Each of the test samples was dissolved in a 0.5% methylcellulose (MC) solution and orally administered. A 0.5% methylcellulose (MC) solution was orally administered to the hamsters as a vehicle control group. A blood sample was collected on the 8th day, and the plasma cholesterol level and the plasma HDL cholesterol level were measured. The total cholesterol reducing rate was obtained by using the following equation. [formula]
Further, non-HDL cholesterol level (LDL cholesterol level+VLDL cholesterol level) was calculated as (Total cholesterol level−HDL cholesterol level), and the reducing rate thereof was calculated by using the following equation. [formula]

For the next assay, the system named is db/db mice. Put plainly: Hypoglycemic action and triglyceride-decreasing action in db/db mice. As to conditions: Mus musculus, 360 h; for inhibition in vivo at 1 mg/kg: 1 mg/kg oral once a day for 2 weeks; for inhibition in vivo at 3 mg/kg: 3 mg/kg oral once a day for 2 weeks. In kind it is in vivo. As to the method:
Test for Measuring Hypoglycemic Action and Triglyceride-Decreasing Action in db/db Mice
Each of test compounds was administered once a day for 2 weeks to db/db mice genetically presenting pathological conditions of obesity, hyperglycemia, and hyperlipidemia. Blood was collected from the mice immediately before the start of administration of a test sample or a vehicle on the first day. Plasma glucose levels and triglyceride levels were measured, and the mice were divided into groups so that average glucose levels and triglyceride levels gave no significant value among the groups. All the test samples were suspended in a 0.5% methylcellulose (MC) solution and orally administered. For a vehicle-administered control group, a 0.5% MC solution was orally administered. Blood samples were collected from the mice on the 15th day, and plasma glucose levels and triglyceride levels were measured. A hypoglycemic rate and triglyceride-reducing rate were calculated by using the following equations.

For assay [2], the system named is 3T3-L1 precursor adipocytes. Kind of assay: Uptake of glucose by adipocytes ([3H]-2-deoxy-glucose uptake). Conditions: Mus musculus, 100 nM compound, 4 to 5 days culture, 100 nM insulin stimulation, relative to 10 μM rosiglitazone taken as 100%, read-out: Amount of glucose uptake (%). The format is cell-based. As to the method:
(§1) Test for Uptake of Glucose By Adipocytes and Test for Triglyceride Accumulation in Adipocytes
According to the method of Mukherjee et al. (Mol. Endocrinol, 14, 1425–1433, 2000), a glucose uptake experiment was performed by using cultured cells. 3T3-L1 precursor adipocytes were cultured for 4 to 5 days in the presence of a test compound, and then stimulated with 100 nM insulin, and then the amount of [^3H]-2-deoxy-glucose (2DG) uptake by the cells was measured. The amount of glucose uptake provided after the treatment with 100 nM of each compound was measured, and represented as a relative value based on the amount of glucose uptake provided after the treatment with 10 μM rosiglitazone, which was taken as 100%.

In assay [3] the test system is 3T3-L1 precursor adipocytes. Put plainly: Triglyceride accumulation in adipocytes. In kind it is cell-based. Conditions: Mus musculus, 100 nM compound, 4 to 5 days culture, relative to 10 μM rosiglitazone taken as 100%, read-out: Amount of accumulated triglyceride (%). The method, then: as §1
Further, 3T3-L1 precursor adipocytes were cultured for 4 to 5 days in the presence of a test compound, and then the amount of triglyceride in the cells was measured according to the method of Shibata T et al. (Eur. J. Pharmacol., 364 (2–3), 211–219, 1999). The amount of accumulated triglyceride provided after the treatment with 100 nM of each compound was measured, and represented as a relative value based on the amount of accumulated triglyceride provided after the treatment with 10 μM rosiglitazone, which was taken as 100%.

A further assay relates to Zucker rats. Kind of assay: Liver triglyceride contents in Zucker rats. In kind it is in vivo. As to conditions: Rattus norvegicus, 336 h, 1 mg/kg once a day for 2 weeks, read-out: Triglyceride reducing rate (%). The method, then:
Measurement of Liver Triglyceride Contents in Zucker Rats
To Zucker rats, a vehicle (0.5% MC), a compound of the present invention or fenofibrate (Sigma) was administered once a day for 2 weeks. The livers were isolated on the next day of the final administration, and amounts of triglyceride in the livers were determined. Triglyceride was extracted by adding 5 ml of a mixture of hexane and isopropanol (2:1, V/V) to 100 mg of liver, homogenizing the liver using Polytron homogenizer, then sufficiently stirring and centrifuging the homogenate at 2000 g for 10 minutes at room temperature. The amount of triglyceride in the solution layer was measured.

[4] abbreviates: non-HDL = total cholesterol - HDL cholesterol, read-out: Non-HDL cholesterol reducing rate (%).
Where [5] appears, read: read-out: Total cholesterol reducing rate (%).
Setting [6] is: plasma glucose on 15th day vs vehicle, read-out: Hypoglycemic rate (%).
Setting [7] is: plasma triglyceride on 15th day vs vehicle, read-out: Triglyceride reducing rate (%).

Where two headings read alike, the source gives them in different places.

This is an account of results in US7015345B2, “Propionic acid derivatives” (Asahi Kasei Pharma Corporation, priority 2002, dated 2006).

In the case of `CCCCOCCN(CCOc1ccc(CC(OC(C)C)C(=O)O)cc1)C(=O)OC(C)C` (centres unmarked) [Example 130, 3-(4-{2-[N-(2-butoxyethyl)-N-isopropoxycarbonylamino]ethoxy}phenyl)-2-isopropoxypropionic acid], the inhibition in vivo at 10 mg/kg in assay [1] (setting [4]) and in assay [1] (setting [5]) was 22% in each case. The inhibition in vivo at 1 mg/kg with db/db mice (setting [6]) was 41%; in the assay with db/db mice (setting [7]) it was 40%; with Zucker rats, 32%. In addition, the Emax at 0.1 µM in assay [2] is 92%; in assay [3], 90%.

`CCCCOCCN(CCOc1ccc(CC(OC(C)C)C(=O)O)cc1)C(=O)OCC(C)C` (centres unmarked) [Example 132, 3-(4-{2-[N-(2-butoxyethyl)-N-isobutoxycarbonylamino]ethoxy}phenyl)-2-isopropoxypropionic acid]: the inhibition in vivo at 10 mg/kg stood at 20% in assay [1] (setting [4]) and 18% in assay [1] (setting [5]). For the same molecule, the inhibition in vivo at 1 mg/kg came to 7% in the assay on db/db mice (setting [6]), 14% with db/db mice (setting [7]) and 39% in the assay with Zucker rats. In addition, the Emax at 0.1 µM in assay [2] is 96%; in assay [3] it was 97%.

In the case of `CCCCCCCN(CCOc1ccc(CC(OCC)C(=O)O)cc1)C(=O)OCCC` (centres unmarked) [Example 59, 2-ethoxy-3-{4-[2-(N-heptyl-N-propoxycarbonylamino)ethoxy]phenyl}propionic acid], the figures for the inhibition in vivo at 10 mg/kg in assay [1] (setting [4]) and in assay [1] (setting [5]) were 35% and 37%, respectively. Further, the inhibition in vivo at 3 mg/kg stood at 18% in the assay on db/db mice (setting [6]) and 21% with db/db mice (setting [7]). In addition, the Emax at 0.1 µM is 88% in assay [2] and 77% in assay [3]. For the same molecule, the inhibition in vivo at 1 mg/kg with Zucker rats was 40%.

Consider `CCCCCCCN(CCOc1ccc(CC(OCC)C(=O)O)cc1)C(=O)OCC(C)C` (centres unmarked) [Example 71, 2-ethoxy-3-{4-[2-(N-heptyl-N-isobutyloxycarbonylamino)ethoxy]phenyl}propionic acid], for which the inhibition in vivo at 10 mg/kg in assay [1] (setting [4]) was found to be 10%; in assay [1] (setting [5]), 12%. Also, the inhibition in vivo at 1 mg/kg in the assay on db/db mice (setting [6]) came to 28%; in the assay on db/db mice (setting [7]), 40%; with Zucker rats, 28%. Also, the Emax at 0.1 µM in assay [2] turned out to be 83%; in assay [3], 85%.

In the case of `CCCCOCCN(CCOc1ccc(CC(OCC)C(=O)O)cc1)C(=O)OCCC` (centres unmarked) [Example 115, 3-(4-{2-[N-(2-butoxyethyl)-N-propoxycarbonylamino]ethoxy}phenyl)-2-ethoxypropionic acid], the inhibition in vivo at 10 mg/kg in assay [1] (setting [4]) and in assay [1] (setting [5]) was 17% throughout. Moreover, the values for the inhibition in vivo at 3 mg/kg in the assay with db/db mice (setting [6]) and in the assay on db/db mice (setting [7]) were 11% and 18%, respectively. In addition, the Emax at 0.1 µM in assay [2] is 98%; in assay [3] it was 95%. In addition, in the assay on Zucker rats, the inhibition in vivo at 1 mg/kg was found to be 42%.

Take `CCCCCCCN(CCOc1ccc(CC(OC(C)C)C(=O)O)cc1)C(=O)OC(C)C` (centres unmarked) [Example 125, 3-{4-[2-(N-heptyl-N-isopropoxycarbonylamino)ethoxy]phenyl}-2-isopropoxypropionic acid]: the inhibition in vivo at 10 mg/kg turned out to be 48% in assay [1] (setting [4]) and 45% in assay [1] (setting [5]). The inhibition in vivo at 1 mg/kg is 42% in the assay with db/db mice (setting [6]), 64% in the assay with db/db mice (setting [7]) and 36% in the assay with Zucker rats. The Emax at 0.1 µM in assay [2] amounted to 97%; in assay [3] it was 98%.

With `CCCCOCCN(CCOc1ccc(CC(OCC)C(=O)O)cc1)C(=O)OCC(C)C` (centres unmarked) [Example 123, 3-(4-{2-[N-(2-butoxyethyl)-N-isobutoxycarbonylamino]ethoxy}phenyl)-2-ethoxypropionic acid], the inhibition in vivo at 10 mg/kg in assay [1] (setting [4]) and in assay [1] (setting [5]) was 25% throughout. In addition, the figures for the inhibition in vivo at 3 mg/kg with db/db mice (setting [6]) and in the assay with db/db mice (setting [7]) were 8% and 32%, respectively. For the same molecule, the results for the Emax at 0.1 µM in assay [2] and in assay [3] were 99% and 96%, respectively. Besides, the inhibition in vivo at 1 mg/kg with Zucker rats was 35%.

For `CCCCCCCN(CCOc1ccc(CC(OCC)C(=O)O)cc1)C(=O)OCc1ccccc1` (centres unmarked) [Example 57, 3-{4-[2-(N-benzyloxycarbonyl-N-heptylamino)ethoxy]phenyl}-2-ethoxypropionic acid], the inhibition in vivo at 10 mg/kg worked out at 43% in assay [1] (setting [4]) and 41% in assay [1] (setting [5]). In addition, the inhibition in vivo at 3 mg/kg with db/db mice (setting [6]) is 35%; with db/db mice (setting [7]), 46%. In addition, the results for the Emax at 0.1 µM in assay [2] and in assay [3] were 80% and 75%, respectively. Further, the inhibition in vivo at 1 mg/kg in the assay with Zucker rats is 41%.
